Experimental data from paper PMC8846325, “A Photoactivable Natural Product with Broad Antiviral Activity against Enveloped Viruses, Including Highly Pathogenic Coronaviruses” (Antimicrobial Agents and Chemotherapy, 2022).

Test system: HCoV-229E
Assay: HCoV-229E-Luc infection inhibition luciferase assay
Assay type: cell-based

CCOC(=O)[C@H]1O[C@@H]1C(=O)N[C@@H](CC(C)C)C(=O)NCCC(C)C [E64D]
HCoV-229E infection with entry inhibitor: specifically inhibited HCoV-229E infection

CN(C)C(=O)COC(=O)Cc1ccc(OC(=O)c2ccc(NC(=N)N)cc2)cc1 [Camostat]
HCoV-229E infection with entry inhibitor: inhibited infection
